From ChEMBL document CHEMBL1157539, “Thousands of chemical starting points for antimalarial lead identification” (Nature, 2010)

system: Plasmodium falciparum; test: GSK_TCMDC: Inhibition of Plasmodium falciparum 3D7 in whole erythrocytes, using parasite LDH activity as an index of growth.; format: functional, organism-based; settings: Plasmodium falciparum, 3D7

Row | Compound | XC50 [nM]
1 | CCCCc1ccc(C(=O)NC2CCN(C[C@H](O)c3ccnc4ccc(OC)cc34)CC2)cc1 | 728
2 | Cc1noc(C)c1C(=O)N1CCc2cc3nccc(N4CCN5CCC[C@H]5C4)c3cc21 | 874
3 | CC(C)(C)c1cc(CN2CCN(Cc3ccccc3)CC2)cc(C(C)(C)C)c1O | 771
4 | CC(C)CNCc1cccc(-c2ccc(CN(CCCN3CCN(C)CC3)C(=O)CCC3CCCC3)cc2)c1 | 877
5 | O=[N+]([O-])c1ccc(C=NNc2nc3ccccc3[nH]2)cc1 | 283
6 | O=C(NCc1ccc(Cl)c(Cl)c1)c1cc(CNC2CCNCC2)ccc1O | 859
7 | Fc1cccc(COc2ccc(Nc3ncnc4sc(C#CCNC5CCCC5)cc34)cc2Cl)c1 | 782
8 | Cc1cc2c3c(N)nc(N)nc3ccc2n1C | 90.1
9 | COc1ccc(Nc2ncc3c(-c4cccc(NC(=O)CC(C)C)c4)c[nH]c3n2)cc1OC | 826
10 | COc1ccc(C(=O)Nc2ccc(Nc3nc(C)cc(N(C)C)n3)cc2)c(OC)c1 | 868
11 | O=C(Nc1ccc(N2CCN(Cc3c[nH]c4cc(F)ccc34)CC2)cc1)c1ccccc1-c1ccc(C(F)(F)F)cc1 | 985
12 | Cn1nccc1C(=O)NCCNCc1ccc(-c2ccc(-c3nc4cc(F)ccc4[nH]3)cc2)cc1 | 297
13 | Cc1cccc2nc(-c3cccc(-c4ccc(NC(=O)NCc5cccc(F)c5)cc4)c3)[nH]c12 | 236
14 | COc1ccc2nccc([C@@H](O)CN3CCC(NCc4cc5ccccc5[nH]4)CC3)c2c1 | 1100
15 | COc1cc2c(cc1OCCN1CCC(N)CC1)N(C(=O)/C=C/c1ccccc1Cl)CC2 | 1120
16 | Cc1cc(N[C@@H](Cc2ccccc2)C(=O)NCc2cccc(F)c2)nc(NCCc2cccnc2)n1 | 1340
17 | Fc1ccc2[nH]c(-c3ccc(-c4ccc(CNCCc5ccncc5)cc4)s3)nc2c1 | 142
18 | OC(CNC1CCCCCCC1)c1ccc(Cl)c(Cl)c1 (stereo not drawn) | 205
19 | Nc1ccc(Nc2ccnc3ccc(C(F)(F)F)cc23)cc1O | 716
20 | COc1ccccc1C(=O)N1CCN(Cc2cccs2)CC1 | 869
21 | COc1cc(NC(=O)/C=C/c2ccc(-c3ccccc3)cc2)ccc1OCCN(C(C)C)C(C)C | 843
22 | CN1CC[C@H](N(Cc2ccccc2F)c2ccc(C#N)c(Cl)c2)C1 | 1270
23 | COc1ccc(Cl)cc1N1CCN(CCCNC(=O)c2ccc(-c3nc4cc(Cl)c(F)cc4[nH]3)c(F)c2)CC1 | 1110
24 | O=C(Nc1cc(F)cc(F)c1)NC1CCN(CCCCCNC(=O)C2CC2c2ccc(Cl)c(Cl)c2)CC1 (stereo not drawn) | 750
25 | Nc1nonc1-c1nc2c(-c3cccc(Cl)c3)nccc2n1CCCNC(=O)Cc1ccc(Cl)cc1 | 268

Row | Compound | XC50 [nM]
26 | Oc1cccc(Nc2ccnc3cc(-c4ccccn4)ccc23)c1 | 744
27 | CN(C)CCCOc1ccc(-c2csc(NC(=N)NCc3ccccc3)n2)cc1 | 278
28 | Cc1c(CCNC(=O)CCCN2CC(C)CC(C)C2)c2ccccc2n1C (stereo not drawn) | 1270
29 | Nc1ccc(-c2ccc3ccnc(N)c3c2)cn1 | 353
30 | Cn1nc(-c2ccc(NC(=O)Nc3cc(C(F)(F)F)ccc3F)cc2)c2cnc(NCCc3c[nH]cn3)nc21 | 813
31 | Cc1cccc2nc(-c3ccc(-c4ccc(CN5CCN(CCN6CCOCC6)CC5)cc4)s3)[nH]c12 | 245
32 | O=C(/C=C/c1ccc(Cl)c(Cl)c1)NC1CCC(CN2CCC(c3c[nH]c4ccccc34)CC2)CC1 (stereo not drawn) | 235
33 | O=S(=O)(Nc1cccc(CCN2CCCCC2CCN2CCCC2)c1)c1ccc(Oc2ccccc2)cc1 (stereo not drawn) | 1050
34 | Oc1ccccc1CNCC12CC3CC(CC(C3)C1)C2 | 279
35 | CC(C)(CNCc1ccc(C(F)(F)F)cc1)c1nc(-c2ccnc(N)n2)c(-c2ccc(Cl)c(O)c2)[nH]1 | 152
36 | COc1cc(Nc2nc(N)n(C(=O)c3ccc4c(c3)OCO4)n2)cc(OC)c1OC | 1130
37 | CCOC(=O)c1nc(-c2ccc(Cl)cc2)[nH]c1NC(=S)NCCCN1CCOCC1 | 868
38 | CC(Cc1ccc(Oc2ccccc2)cc1)NCC(O)c1cccc(C(F)(F)F)c1 (stereo not drawn) | 674
39 | CC[C@H]1CN2CC[C@H]1C[C@H]2[C@H](O)c1cc(/C=C/c2ccc(F)cc2)nc2ccc(OC)cc12 | 28.1
40 | O=C(NC1CCC(N2CCC(Cc3ccc(F)cc3)CC2)CC1)c1cc2ccccc2[nH]1 (stereo not drawn) | 868
41 | Cc1nc(N)nc(N)c1-c1cccc(Cl)c1 | 1170
42 | COc1ccccc1CCN(C)CCN1CCC(NC(=O)c2ccc(-c3ccc(C(F)(F)F)cc3)cc2)CC1 | 1030
43 | COc1c(I)cc(Cc2cnc(N)nc2N)cc1I | 930
44 | c1ccc(CN2CCN(c3cc(-c4cncc(-c5ccccc5)c4)nc(-c4ccccc4)n3)CC2)cc1 | 1040
45 | CCN(CC)CCN(Cc1ccc(-c2ccc(C(F)(F)F)cc2)cc1)C(=O)Cn1c(SCc2ccc(F)c(F)c2F)nc(=O)c2c1CCC2 | 1020
46 | CCNc1cc(C(=O)N[C@@H](Cc2ccccc2Cl)[C@H](O)CNC(C)CCCC(C)C)cc(N2CCCCS2(=O)=O)c1 (stereo partly drawn) | 928
47 | CNC(=O)c1ccccc1Nc1nc(Nc2cccnc2)ncc1C | 101
48 | CC(=O)Nc1ccc(CN2CCc3ccc(NS(=O)(=O)c4cccc(OCc5ccc(Cl)cc5)c4)cc3CC2)s1 | 906
49 | CCN(CC)CCCCNc1cc(-c2[nH]c(-c3c(Cl)cccc3Cl)nc2-c2ccc3cc(OC)ccc3c2)ccn1 | 958
50 | COc1ccc(Cl)cc1C(=O)Nc1ccc(-c2nc3ccccc3[nH]2)cc1 | 774

Row | Compound | XC50 [nM]
51 | O=C(/C=C/c1ccc(Cl)c(Cl)c1)N1CCC(C(O)CN2CCC(c3c[nH]c4ccccc34)CC2)CC1 (stereo not drawn) | 859
52 | COc1ccc(CCc2ccc(-c3c(C)[nH]c(C)c(Cl)c3=O)cc2)cc1OC | 94
53 | Clc1ccc(-c2cnc3ccc(NCCc4cccnc4)nn23)cc1 | 857
54 | Cc1nc(-c2nc(N3CCC(C(N)=O)CC3)ncc2-c2ccsc2)sc1C | 902
55 | Cc1cccc2nc(-c3ccc(-c4cccc(NC(=O)C(C)CN(C)C)c4)cc3)[nH]c12 (stereo not drawn) | 652
56 | COc1cc2c(cc1COc1ccccc1)CCN1Cc3cc(OC)c(OC)cc3CC21 (stereo not drawn) | 150
57 | Cc1cc2cc(-c3ccc(CN)cc3)ccc2nc1N | 1130
58 | CN1CCN(CCCN(Cc2cccc(-c3ccc(CNC4CCCC4)cc3)c2)C(=O)CCC2CCCC2)CC1 | 761
59 | CCN(CC)CCN(Cc1ccc(-c2ccc(C(F)(F)F)cc2)nc1)C(=O)Cn1c(SCc2ccc(F)cc2)nc(=O)c2sccc21 | 840
60 | COc1ccc(CC(=O)NC2CCN(c3ccnc4cc(Cl)ccc34)C2)cc1 (stereo not drawn) | 241
61 | N=C(N)Nc1nc(-c2cccc(NC(=O)NCc3cccc4ccccc34)c2)cs1 | 841
62 | O=C(Cc1c[nH]cn1)Nc1cccc(-c2ccc(-c3nc4cc(F)ccc4[nH]3)cc2)c1 | 806
63 | CC(C)Cc1nc(N)nc(N)c1-c1ccc(Cl)cc1 | 145
64 | CN1CCC(N2CCN(Cc3cccc(-c4cccc(-c5nc6ccccc6[nH]5)c4)c3)CC2)CC1 | 194
65 | Oc1cccc2c1CC(NCc1ccccc1)CC2 (stereo not drawn) | 887
66 | CC(C)C[C@@H](NC(=O)NC1CCC(CCN2C3CCC2CC(OC(=O)C(CO)c2ccccc2)C3)CC1)C(O)(c1ccccc1)c1ccccc1 (stereo partly drawn) | 1070
67 | Cc1nc(C)c(-c2ccc(C(F)(F)F)cc2)c(O)c1Br | 142
68 | Nc1c2c(nc3ccc(C(=O)Nc4ccc(Br)cc4)cc13)CCCC2 | 149
69 | CCc1cc(Br)c2c(c1)C(NCCCNc1cc(=O)c3ccccc3[nH]1)CCN2 (stereo not drawn) | 852
70 | C=CCNC(CCCCC)c1ccc(OCCOc2ccc(C(CCCCC)NCC=C)cc2)cc1 (stereo not drawn) | 567
71 | CC[C@@]1(O)C(=O)OCc2c1cc1n(c2=O)Cc2c-1nc1cc3c(cc1c2CN1CCN(C)CC1)OCCO3 | 446
72 | C#CC(C)(CO)N1CCCC1 (stereo not drawn) | 379
73 | COc1ccc2nccc([C@@H](O)CN3CCC(NCc4cc5ccc(Cl)cc5[nH]4)CC3)c2c1 | 121
74 | Cc1[nH]c(C)c(-c2ccc(-c3ccccc3C(F)(F)F)nc2)c(=O)c1Br | 168
75 | CCCCCCNC(=O)C1Cc2c([nH]c3cc(Cl)ccc23)C2(CCN(CCC)CC2)N1 (stereo not drawn) | 880

Row | Compound | XC50 [nM]
76 | CC(C)(C)CCN1CCC(CNC(=O)c2cc(-c3cccc(Cl)c3)cs2)C1 (stereo not drawn) | 819
77 | CC(C)(C)C1=CC(=NNC(=O)c2ccncc2)C=C(C(C)(C)C)C1=O | 704
78 | O=C(NCCCNc1ccnc2cc(Cl)ccc12)c1ccccc1F | 315
79 | Cc1cccc2nc(-c3ccc(-c4ccc(CN5CCCC(N)C5)cc4)cc3)[nH]c12 (stereo not drawn) | 350
80 | Cc1nc2ccccc2c(=O)n1NCc1ccc(Cl)c(Cl)c1 | 146
81 | CCOc1cc(C)ccc1N1CCN(CCN2CCC(NC(=O)c3ccc(-c4ccc(C#N)cc4)cc3)CC2)CC1 | 1430
82 | COc1cc2c(Nc3cccc(NC(=O)c4ccccc4)c3)ncnc2cc1OCCCN1CCOCC1 | 155
83 | Cc1cc(-c2nc3ccc(C(=O)NCc4ccccc4)cc3n2C2CCN(C(=O)c3ccc(-c4ccccc4)cc3)CC2)ccn1 | 898
84 | Cc1ccc(C)c(Cn2ccc3nc(Cl)nc(Cl)c32)c1 | 911
85 | O=C1COc2ccc(S(=O)(=O)N3CCC[C@@H]3CCN3CCC(c4c[nH]c5cnccc45)CC3)cc2N1 | 865
86 | CN1CCN(c2ccc(-c3cccc(NC(=O)c4cccc([N+](=O)[O-])c4)c3)nn2)CC1 | 527
87 | CC(C)NCc1ccc(-c2cccc(-c3nc4ccccc4[nH]3)c2)cc1 | 231
88 | O=C(NC1CCC(CN2CCC(c3c[nH]c4ccccc34)CC2)CC1)c1csc(-c2ccc(C(F)(F)F)cc2Cl)n1 (stereo not drawn) | 827
89 | COc1ccccc1CCNc1nc(C)cc(N[C@@H](CC(C)C)C(=O)NCc2cccc(F)c2)n1 | 973
90 | Cc1ccc(CNc2ccc3ncc(-c4cccc(C(=O)NCCN(C)C)c4)n3n2)c(C)c1 | 588
91 | Nc1c2c(nc3ccc(NC(=O)c4ccc([N+](=O)[O-])cc4)cc13)CCCC2 | 237
92 | CC(=O)Nc1ccc(OCCCN(Cc2ccccc2OC(F)(F)F)c2ccc(C(F)(F)F)c(C#N)c2)c(Cl)c1 | 813
93 | CNCCNCc1ccc(-c2ccc(-c3nc4cc(C(F)(F)F)ccc4[nH]3)s2)cc1 | 604
94 | CCCC(C)N(Cc1ccc(C(C)(C)C)cc1)C(=O)c1ccc(OC)cc1 (stereo not drawn) | 111
95 | COc1ccc2nc(Nc3nc(-c4ccccn4)cs3)sc2c1 | 1120
96 | COc1cc(C)nc2ccc(NC(=O)c3cc([N+](=O)[O-])cc([N+](=O)[O-])c3)cc12 | 385
97 | COc1ccc(CNCc2ccccc2)cc1-c1ccc(OC)c(S(=O)(=O)NCCN2CCCC2)c1 | 827
98 | CCc1cccc2sc(N3CCN(C(=O)c4ccc([N+](=O)[O-])o4)CC3)nc12 | 773
